Earlier results on one substance are cited in patent publication EP0374097A2, “Use of peptide isosteres as retroviral protease inhibitors” (CIBA-GEIGY AG, priority 1988, dated 1990).

The data set has as its system gag-Protease von HIV. Conditions: stated as known.

Take Pepstatin: the “Hemmung der gag-Protease von HIV” value is “gehemmt”.
